Structures can show the parent of a compound that is named as a salt.
target: T1, recombinant human GSK3β (Homo sapiens, UniProt P49841); assay: GSK3β Scintillation Proximity Assay (ATP competition); format: biochemical; conditions: inhibition constants calculated with Km of ATP for GSK3β of 20 μM; 1 μM ATP, 1 μM biotinylated peptide substrate
T1 construct: purchased Dundee University, UK
Description: Determination of ATP Competition in Scintillation Proximity GSK3β Assay.
GSK3β Scintillation Proximity Assay.
The competition experiments were carried out in duplicate with 10 different concentrations of the inhibitors in clear-bottom microtiter plates (Wallac, Finland). A biotinylated peptide substrate, Biotin-Ala-Ala-Glu-Glu-Leu-Asp-Ser-Arg-Ala-Gly-Ser(PO3H2)-Pro-Gln-Leu (AstraZeneca, Lund), was added at a final concentration of 1 μM in an assay buffer containing 1 mU recombinant human GSK3β (Dundee University, UK), 12 mM morpholinepropanesulfonic acid (MOPS), pH 7.0, 0.3 mM EDTA, 0.01% β-mercaptoethanol, 0.004% Brij 35 (a […] detergent), 0.5% glycerol and 0.5 μg BSA/25 μl. The reaction was initiated by the addition of 0.04 μCi [γ-^33P]ATP (Amersham, UK) and unlabelled ATP at a final concentration of 1 μM and assay volume of 25 μl. After incubation for 20 minutes at room temperature, each reaction was terminated by the addition of 25 μl stop solution containing 5 mM EDTA, 50 μM ATP, 0.1% Triton X-100 and 0.25 mg streptavidin coated Scintillation Proximity Assay (SPA) beads (Amersham, UK). After 6 hours the radioactivity was determined in a liquid scintillation counter (1450 MicroBeta Trilux, Wallac). The inhibition curves were analysed by non-linear regression using GraphPad Prism, USA. The Km value of ATP for GSK3β, used to calculate the inhibition constants (Ki) of the various compounds, was 20 μM.

T1 sequence (P49841 whole entry): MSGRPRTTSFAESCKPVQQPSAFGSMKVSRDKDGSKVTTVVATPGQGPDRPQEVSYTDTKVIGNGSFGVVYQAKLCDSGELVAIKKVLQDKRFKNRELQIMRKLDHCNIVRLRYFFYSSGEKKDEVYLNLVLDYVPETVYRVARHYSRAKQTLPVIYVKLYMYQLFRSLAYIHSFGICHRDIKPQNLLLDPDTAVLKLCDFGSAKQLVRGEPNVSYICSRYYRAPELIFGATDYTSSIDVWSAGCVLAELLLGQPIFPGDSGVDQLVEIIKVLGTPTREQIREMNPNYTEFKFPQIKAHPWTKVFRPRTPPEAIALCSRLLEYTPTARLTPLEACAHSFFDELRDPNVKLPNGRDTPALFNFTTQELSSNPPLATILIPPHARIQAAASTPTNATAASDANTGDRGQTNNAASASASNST

SMILES | Ki [nM]
CCC(C)N1CCN(C(=O)c2ccc(Nc3ncc(F)c(-c4cnc(C)n4C4CCOCC4)n3)cn2)CC1 (centres unmarked) [Example 34, (4-Butan-2-ylpiperazin-1-yl)-[5-[[5-fluoro-4-[2-methyl-3-(oxan-4-yl)imidazol-4-yl]pyrimidin-2-yl]amino]pyridin-2-yl]methanone] | 85
Cc1ncc(-c2nc(Nc3ccc(C(=O)NCC(C)(C)CN(C)C)nc3)ncc2F)n1C1CCOCC1 [Example 39, N-(3-Dimethylamino-2,2-dimethyl-propyl)-5-[[5-fluoro-4-[2-methyl-3-(oxan-4-yl)imidazol-4-yl]pyrimidin-2-yl]amino]pyridine-2-carboxamide] | 160
Cc1ncc(-c2nc(Nc3ccc(S(=O)(=O)C(C)C)nc3)ncc2F)n1C1CCOCC1 [Example 50, {5-Fluoro-4-[2-methyl-3-(tetrahydro-pyran-4-yl)-3H-imidazol-4-yl]-pyrimidin-2-yl}-[6-(propan-2-ylsulfonyl)-pyridin-3-yl]-amine] | 33
Cc1ncc(-c2nc(Nc3ccc(C(=O)N4CCCC(C)C4)nc3)ncc2F)n1C1CCOCC1 (centres unmarked) [Example 14, [5-[[5-Fluoro-4-[2-methyl-3-(oxan-4-yl)imidazol-4-yl]pyrimidin-2-yl]amino]pyridin-2-yl]-(3-methyl-1-piperidyl)methanone] | 16
CCCN(CCC)C(=O)c1ccc(Nc2ncc(F)c(-c3cnc(C)n3C3CCOCC3)n2)cn1 [Example 24, 5-[[5-Fluoro-4-[2-methyl-3-(oxan-4-yl)imidazol-4-yl]pyrimidin-2-yl]amino]-N,N-dipropyl-pyridine-2-carboxamide] | 24
COC1CCN(C(=O)c2ccc(Nc3ncc(F)c(-c4cnc(C)n4C4CCOCC4)n3)cn2)CC1 [Example 25, [5-[[5-Fluoro-4-[2-methyl-3-(oxan-4-yl)imidazol-4-yl]pyrimidin-2-yl]amino]pyridin-2-yl]-(4-methoxy-1-piperidyl)methanone] | 28
Cc1ncc(-c2nc(Nc3cnc(C(=O)N4CCCCC4)c(Cl)c3)ncc2F)n1C1CCOCC1 [Example 54, N-[5-Chloro-6-(piperidin-1-ylcarbonyl)pyridin-3-yl]-5-fluoro-4-[2-methyl-1-(tetrahydro-2H-pyran-4-yl)-1H-imidazol-5-yl]pyrimidin-2-amine hydrocholoride, hydrochloride] | 7
CN1CCN(C(=O)c2ncc(Nc3ncc(F)c(-c4cnc(C(F)(F)F)n4C4CCOCC4)n3)cc2Cl)CC1 [Example 43, [3-Chloro-5-[[5-fluoro-4-[3-(oxan-4-yl)-2-(trifluoromethyl)imidazol-4-yl]pyrimidin-2-yl]amino]pyridin-2-yl]-(4-methylpiperazin-1-yl)methanone] | 23
Cc1ncc(-c2nc(Nc3ccc(C(=O)N4CC(C)CC(C)C4)nc3)ncc2F)n1C1CCOCC1 (centres unmarked) [Example 40, (3,5-Dimethyl-1-piperidyl)-[5-[[5-fluoro-4-[2-methyl-3-(oxan-4-yl)imidazol-4-yl]pyrimidin-2-yl]amino]pyridin-2-yl]methanone] | 16
CCCN(C(=O)c1ccc(Nc2ncc(F)c(-c3cnc(C)n3C3CCOCC3)n2)cn1)C(C)CC (centres unmarked) [Example 12, N-Butan-2-yl-5-[[5-fluoro-4-[2-methyl-3-(oxan-4-yl)imidazol-4-yl]pyrimidin-2-yl]amino]-N-propyl-pyridine-2-carboxamide] | 29
Cc1ncc(-c2nc(Nc3ccc(C(=O)N4CCC(F)(F)CC4)nc3)ncc2F)n1C1CCOCC1 [Example 29, (4,4-Difluoro-1-piperidyl)-[5-[[5-fluoro-4-[2-methyl-3-(oxan-4-yl)imidazol-4-yl]pyrimidin-2-yl]amino]pyridin-2-yl]methanone] | 34
COc1ncc(Nc2ncc(F)c(-c3cnc(C)n3C3CCOCC3)n2)cn1 [Example 11, {5-Fluoro-4-[2-methyl-3-(tetrahydro-pyran-4-yl)-3H-imidazol-4-yl]-pyrimidin-2-yl}-(2-methoxy-pyrimidin-5-yl)-amine] | 60
Cc1ncc(-c2nc(Nc3ccc(S(=O)(=O)NCC(F)(F)F)nc3)ncc2F)n1C1CCOCC1 [Example 52] | 39
Cn1c(-c2nc(Nc3cnc(C(=O)N4CCC4)c(Cl)c3)ncc2F)cnc1C(F)(F)F [Example 45, Azetidin-1-yl-[3-chloro-5-[[5-fluoro-4-[3-methyl-2-(trifluoromethyl)imidazol-4-yl]pyrimidin-2-yl]amino]pyridin-2-yl]methanone hydrochloride] | 32
Cc1ncc(-c2nc(Nc3ccc(S(C)(=O)=O)cn3)ncc2F)n1C1CCOCC1 [Example 1, 5-Fluoro-N-[5-(methylsulfonyl)pyridin-2-yl]-4-[2-methyl-1-(tetrahydro-2H-pyran-4-yl)-1H-imidazol-5-yl]pyrimidin-2-amine hydrochloride] | 468
Cc1ncc(-c2nc(Nc3ccc(S(=O)(=O)N4CCN(C)CC4)nc3)ncc2F)n1C1CCOCC1 [Example 58, {5-Fluoro-4-[2-methyl-3-(tetrahydro-pyran-4-yl)-3H-imidazol-4-yl]-pyrimidin-2-yl}-[6-(4-methyl-piperazine-1-sulfonyl)-pyridin-3-yl]-amine] | 30
Cc1ncc(-c2nc(Nc3ccc(C(=O)N4CCN(c5ccc(F)cc5)CC4)nc3)ncc2F)n1C1CCOCC1 [Example 36, [5-[[5-Fluoro-4-[2-methyl-3-(oxan-4-yl)imidazol-4-yl]pyrimidin-2-yl]amino]pyridin-2-yl]-[4-(4-fluorophenyl)piperazin-1-yl]methanone] | 10
Cc1ncc(-c2nc(Nc3ccc(C(=O)N(C)C(C)C)nc3)ncc2F)n1C1CCOCC1 [Example 15, 5-[[5-Fluoro-4-[2-methyl-3-(oxan-4-yl)imidazol-4-yl]pyrimidin-2-yl]amino]-N-methyl-N-propan-2-yl-pyridine-2-carboxamide] | 43
Cn1c(-c2nc(Nc3cnc(C(=O)N4CCCCC4)c(Cl)c3)ncc2F)cnc1C(F)(F)F [Example 56, N-[5-Chloro-6-(piperidin-1-ylcarbonyl)pyridin-3-yl]-5-fluoro-4-[1-methyl-2-(trifluoromethyl)-1H-imidazol-5-yl]pyrimidin-2-amine hydrochloride] | 55
CCCN(CC1CC1)C(=O)c1ccc(Nc2ncc(F)c(-c3cnc(C)n3C3CCOCC3)n2)cn1 [Example 35] | 20
Cc1ncc(-c2nc(Nc3ccc(C(=O)N4CCC4)nc3)ncc2F)n1C1CCOCC1 [Example 5, N-[6-(Azetidin-1-ylcarbonyl)pyridin-3-yl]-5-fluoro-4-[2-methyl-1-(tetrahydro-2H-pyran-4-yl)-1H-imidazol-5-yl]pyrimidin-2-amine] | 70
CCCCN1CCN(C(=O)c2ccc(Nc3ncc(F)c(-c4cnc(C)n4C4CCOCC4)n3)cn2)CC1 [Example 18, (4-Butylpiperazin-1-yl)-[5-[[5-fluoro-4-[2-methyl-3-(oxan-4-yl)imidazol-4-yl]pyrimidin-2-yl]amino]pyridin-2-yl]methanone] | 47
Cc1ncc(-c2nc(Nc3ccc(C(=O)N4CCN(Cc5ccccc5)CC4)nc3)ncc2F)n1C1CCOCC1 [Example 28, (4-Benzylpiperazin-1-yl)-[5-[[5-fluoro-4-[2-methyl-3-(oxan-4-yl)imidazol-4-yl]pyrimidin-2-yl]amino]pyridin-2-yl]methanone] | 19
CCCN1CCN(C(=O)c2ccc(Nc3ncc(F)c(-c4cnc(C)n4C4CCOCC4)n3)cn2)CC1 [Example 37, [5-[[5-Fluoro-4-[2-methyl-3-(oxan-4-yl)imidazol-4-yl]pyrimidin-2-yl]amino]pyridin-2-yl]-(4-propylpiperazin-1-yl)methanone] | 56
Cc1ncc(-c2nc(Nc3ccc(C(=O)N4CCC4)nc3)ncc2F)n1C [Example 46, N-[6-(Azetidin-1-ylcarbonyl)pyridin-3-yl]-4-(1,2-dimethyl-1H-imidazol-5-yl)-5-fluoropyrimidin-2-amine] | 39
CCN(Cc1ccccc1)C(=O)c1ccc(Nc2ncc(F)c(-c3cnc(C)n3C3CCOCC3)n2)cn1 [Example 33, N-Benzyl-N-ethyl-5-[[5-fluoro-4-[2-methyl-3-(oxan-4-yl)imidazol-4-yl]pyrimidin-2-yl]amino]pyridine-2-carboxamide] | 16
Cc1ncc(-c2nc(Nc3cnc(C(=O)N4CCN(C)CC4)c(Cl)c3)ncc2F)n1C [Example 49, N-[5-Chloro-6-[(4-methylpiperazin-1-yl)carbonyl]pyridin-3-yl]-4-(1,2-dimethyl-1H-imidazol-5-yl)-5-fluoropyrimidin-2-amine] | 19
Cc1ncc(-c2nc(Nc3ccc(C(=O)N(C(C)C)C(C)C)nc3)ncc2F)n1C1CCOCC1 [Example 22, 5-[[5-Fluoro-4-[2-methyl-3-(oxan-4-yl)imidazol-4-yl]pyrimidin-2-yl]amino]-N,N-dipropan-2-yl-pyridine-2-carboxamide] | 67
Cc1ncc(-c2nc(Nc3ccc(C(=O)N4CCN(C(C)C)CC4)nc3)ncc2F)n1C1CCOCC1 [Example 21, [5-[[5-Fluoro-4-[2-methyl-3-(oxan-4-yl)imidazol-4-yl]pyrimidin-2-yl]amino]pyridin-2-yl]-(4-propan-2-ylpiperazin-1-yl)methanone] | 90

From US20080188502A1, “New Compounds I” (AstraZeneca AB, priority 2006, published 2008)
